Laboratory results taken from ChEMBL document CHEMBL3868595, “Plazomicin is effective in a non-human primate pneumonic plague model” (Bioorg Med Chem, 2016).

Tests used:
African green monkey [1] = experiment: Toxicity in African green monkey 7972 model infected with Yersinia pestis Colorado 92 assessed as serum gamma glutamyl-transferase level at 25 mg/kg, iv administered within 6 hrs post onset of sustained fever as 30 mins infusion for 10 days (reference value: 46 IU/L); assay type: organism-based; details: chlorocebus sabaeus, in vivo
Yersinia pestis [2] = experiment: Antibacterial activity against Yersinia pestis Colorado 92 infected in African green monkey B6106 model assessed as bacterial burden in heart at 25 mg/kg, iv administered within 6 hrs post onset of sustained fever as 30 mins infusion for 5 days (reference value: 2.6 10^7CFU/g); assay type: functional, organism-based; details: CO92
African green monkey [3] = experiment: Toxicity in African green monkey B6408 model infected with Yersinia pestis Colorado 92 assessed as serum gamma glutamyl-transferase level at 25 mg/kg, iv administered within 6 hrs post onset of sustained fever as 30 mins infusion for 10 days (reference value: 53 IU/L); assay type: organism-based; details: chlorocebus sabaeus, in vivo
Yersinia pestis [4] = experiment: Antibacterial activity against Yersinia pestis Colorado 92 infected in African green monkey B6127 model assessed as bacterial burden in spleen at 25 mg/kg, iv administered within 6 hrs post onset of sustained fever as 30 mins infusion for 10 days (reference value: 1.6 10^9CFU/g); assay type: functional, organism-based; details: CO92
African green monkey [5] = experiment: Toxicity in African green monkey B5994 model infected with Yersinia pestis Colorado 92 assessed as serum alanine aminotransferase level at 25 mg/kg, iv administered within 6 hrs post onset of sustained fever as 30 mins infusion for 10 days (reference value: 62 IU/L); assay type: organism-based; details: chlorocebus sabaeus, in vivo
African green monkey [6] = experiment: Toxicity in African green monkey assessed as effect on serum creatinine level at 25 mg/kg administered as iv infusion twice daily for 7 consecutive days measured on day 1 by LC-MS/MS analysis; assay type: organism-based; details: chlorocebus sabaeus, in vivo
Yersinia pestis [7] = experiment: Antibacterial activity against Yersinia pestis Colorado 92 infected in African green monkey C2083 model assessed as bacterial burden in blood at 12.5 mg/kg, iv administered within 6 hrs post onset of sustained fever as 30 mins infusion for 5 days (reference value: 1.2 10^7CFU/ml); assay type: functional, CO92
African green monkey [8] = experiment: Toxicity in African green monkey assessed as effect on serum creatinine level at 35 mg/kg administered as iv infusion twice daily for 7 consecutive days measured on day 7 by LC-MS/MS analysis; assay type: organism-based; details: chlorocebus sabaeus, in vivo
Yersinia pestis [9] = experiment: Antibacterial activity against Yersinia pestis Colorado 92 infected in African green monkey B6872 model assessed as bacterial burden in lung at 25 mg/kg, iv administered within 6 hrs post onset of sustained fever as 30 mins infusion for 5 days (reference value: 7.7 10^8CFU/g); assay type: functional, organism-based; details: CO92
African green monkey [10] = experiment: Toxicity in African green monkey 7929 model infected with Yersinia pestis Colorado 92 assessed as serum lactate dehydrogenase level at 25 mg/kg, iv administered within 6 hrs post onset of sustained fever as 30 mins infusion for 10 days (reference value: 653 IU/L); assay type: organism-based; details: chlorocebus sabaeus, in vivo
Yersinia pestis [11] = experiment: Antibacterial activity against Yersinia pestis Colorado 92 infected in African green monkey B6960 model assessed as bacterial burden in kidney at 6.25 mg/kg, iv administered within 6 hrs post onset of sustained fever as 30 mins infusion for 5 days (reference value: 7.1 10^7CFU/g); assay type: functional, CO92
Yersinia pestis [12] = experiment: Antibacterial activity against Yersinia pestis Colorado 92 infected in African green monkey B6127 model assessed as bacterial burden in lung at 25 mg/kg, iv administered within 6 hrs post onset of sustained fever as 30 mins infusion for 10 days (reference value: 7.7 10^8CFU/g); assay type: functional, organism-based; details: CO92
African green monkey [13] = experiment: Toxicity in African green monkey 7929 model infected with Yersinia pestis Colorado 92 assessed as blood urea nitrogen level at 25 mg/kg, iv administered within 6 hrs post onset of sustained fever as 30 mins infusion for 10 days (reference value: 15 mg/dl); assay type: organism-based; details: chlorocebus sabaeus, in vivo
Yersinia pestis [14] = experiment: Antibacterial activity against Yersinia pestis Colorado 92 infected in African green monkey B6889 model assessed as bacterial burden in spleen at 6.25 mg/kg, iv administered within 6 hrs post onset of sustained fever as 30 mins infusion for 5 days (reference value: 1.6 10^9CFU/g); assay type: functional, CO92
Yersinia pestis [15] = experiment: Antibacterial activity against Yersinia pestis Colorado 92 infected in African green monkey C2083 model assessed as bacterial burden in liver at 12.5 mg/kg, iv administered within 6 hrs post onset of sustained fever as 30 mins infusion for 5 days (reference value: 5.2 10^8CFU/g); assay type: functional, CO92
Yersinia pestis [16] = experiment: Antibacterial activity against Yersinia pestis Colorado 92 infected in African green monkey B6415 model assessed as bacterial burden in liver at 25 mg/kg, iv administered within 6 hrs post onset of sustained fever as 30 mins infusion for 5 days (reference value: 5.2 10^8CFU/g); assay type: functional, CO92
[17] = Toxicity in African green monkey 7929 model infected with Yersinia pestis Colorado 92 assessed as total white blood cell count at 25 mg/kg, iv administered within 6 hrs post onset of sustained fever as 30 mins infusion for 10 days (reference value: 10.9 10^3/microL); assay type: organism-based; details: chlorocebus aethiops, in vivo
[18] = Clearance in African green monkey blood at 35 mg/kg administered as iv infusion twice daily for 7 consecutive days measured on day 1 by LC-MS/MS analysis; assay type: ADME, organism-based; details: chlorocebus aethiops
Yersinia pestis [19] = experiment: Antibacterial activity against Yersinia pestis Colorado 92 infected in African green monkey B6861 model assessed as bacterial burden in kidney at 6.25 mg/kg, iv administered within 6 hrs post onset of sustained fever as 30 mins infusion for 5 days (reference value: 7.1 10^7CFU/g); assay type: functional, CO92
[20] = Toxicity in African green monkey B6408 model infected with Yersinia pestis Colorado 92 assessed as total white blood cell count at 25 mg/kg, iv administered within 6 hrs post onset of sustained fever as 30 mins infusion for 10 days (reference value: 6.9 10^3/microL); assay type: organism-based; details: chlorocebus aethiops, in vivo
African green monkey [21] = experiment: Toxicity in African green monkey 7653 model infected with Yersinia pestis Colorado 92 assessed as serum lactate dehydrogenase level at 25 mg/kg, iv administered within 6 hrs post onset of sustained fever as 30 mins infusion for 10 days (reference value: 319 IU/L); assay type: organism-based; details: chlorocebus sabaeus, in vivo
Yersinia pestis [22] = experiment: Antibacterial activity against Yersinia pestis Colorado 92 infected in African green monkey B6436 model assessed as bacterial burden in lung at 25 mg/kg, iv administered within 6 hrs post onset of sustained fever as 30 mins infusion for 5 days (reference value: 7.7 10^8CFU/g); assay type: functional, CO92
[23] = Volume of distribution at steady state in African green monkey blood at 35 mg/kg administered as iv infusion twice daily for 7 consecutive days measured on day 1 by LC-MS/MS analysis; assay type: ADME, organism-based; details: chlorocebus aethiops, read-out: Vdss
[24] = Toxicity in African green monkey B5994 model infected with Yersinia pestis Colorado 92 assessed as total white blood cell count at 25 mg/kg, iv administered within 6 hrs post onset of sustained fever as 30 mins infusion for 10 days (reference value: 8 10^3/microL); assay type: organism-based; details: chlorocebus aethiops, in vivo
Yersinia pestis [25] = experiment: Antibacterial activity against Yersinia pestis Colorado 92 infected in African green monkey B6415 model assessed as bacterial burden in lung at 25 mg/kg, iv administered within 6 hrs post onset of sustained fever as 30 mins infusion for 5 days (reference value: 7.7 10^8CFU/g); assay type: functional, CO92
Yersinia pestis [26] = experiment: Antibacterial activity against Yersinia pestis Colorado 92 infected in African green monkey C2083 model assessed as bacterial burden in heart at 12.5 mg/kg, iv administered within 6 hrs post onset of sustained fever as 30 mins infusion for 5 days (reference value: 2.6 10^7CFU/g); assay type: functional, CO92

CN[C@@H]1[C@@H](O)[C@@H](O[C@@H]2[C@@H](O)[C@H](O[C@H]3OC(CNCCO)=CC[C@H]3N)[C@@H](N)C[C@H]2NC(=O)[C@@H](O)CCN)OC[C@]1(C)O [PLAZOMICIN]
Activity (African green monkey [1]): 38 IU/L
Activity (Yersinia pestis [2]): Below limit of detection
Activity (African green monkey [3]): 56 IU/L
Activity (Yersinia pestis [4]): Below limit of detection
Activity (African green monkey [5]): 46 IU/L
Activity (African green monkey [6]): 0.55 mg/dL
Activity (Yersinia pestis [7]): 24 CFU/ml
Activity (African green monkey [8]): 0.6 mg/dL
Activity (Yersinia pestis [9]): Below limit of detection
Activity (African green monkey [10]): 496 IU/L
Activity (Yersinia pestis [11]): 72 CFU/g
Activity (Yersinia pestis [12]): Below limit of detection
Activity (African green monkey [13]): 17 mg/dL
Activity (Yersinia pestis [14]): 6.2 ×10⁶ CFU/g
Activity (Yersinia pestis [15]): 4.5 ×10⁹ CFU/g
Activity (Yersinia pestis [16]): 2 ×10⁶ CFU/g
Activity [17]: 8.5 ×10³ /uL
clearance [18]: 1.67 mL/min/kg
Activity (Yersinia pestis [19]): 11 CFU/g
Activity [20]: 5.5 ×10³ /uL
Activity (African green monkey [21]): 426 IU/L
Activity (Yersinia pestis [22]): 44 CFU/g
Vd [23]: 0.26 L/kg
Activity [24]: 4.5 ×10³ /uL
Activity (Yersinia pestis [25]): 3.2 ×10⁹ CFU/g
Activity (Yersinia pestis [26]): 1.5 ×10⁷ CFU/g
